Assay results reported in the supplement of paper PMC8149375.
“And” between values parts separate entries of the source, which are not always exact repeats. Equal entries are not always repeated.

Experiments:
Settings in all cases: treatment: drug alone; 5 days
[1] = tested on: ACHN; experiment: GI50, drug alone; higher = less potent
Method: (§1)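 Primary HTS: 8 RCC cell lines treated with 8 doses (up to 10 uM) of each library drug alone for 5 days; viability read by CellTiter-Glo and normalised to DMSO. GI50 was fitted with XLfit (4-parameter), AUC is the area under the dose-response curve, and minimum viability is the lowest fraction of DMSO viability across doses.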

[2] = tested on: CAKI-1; experiment: GI50, drug alone; higher = less potent
Method: as §1

[3] = tested on: UO-31; experiment: GI50, drug alone; higher = less potent
Method: as §1

[4] = tested on: SN12C; experiment: GI50, drug alone; higher = less potent
Method: as §1

[5] = tested on: 769-P; experiment: GI50, drug alone; higher = less potent
Method: as §1

[6] = tested on: 786-O; experiment: GI50, drug alone; higher = less potent
Method: as §1

[7] = tested on: TK-10; experiment: GI50, drug alone; higher = less potent
Method: as §1

[8] = tested on: A498; experiment: GI50, drug alone; higher = less potent
Method: as §1

[9] = tested on: ACHN; experiment: minimum viability across doses, drug alone, relative to DMSO (fraction); higher = less growth inhibition
Method: as §1

[10] = tested on: CAKI-1; experiment: as above
Method: as §1

[11] = tested on: UO-31; experiment: as above
Method: as §1

[12] = tested on: SN12C; experiment: as above
Method: as §1

[13] = tested on: 769-P; experiment: as above
Method: as §1

[14] = tested on: 786-O; experiment: as above
Method: as §1

[15] = tested on: TK-10; experiment: as above
Method: as §1

[16] = tested on: A498; experiment: as above
Method: as §1

[17] = tested on: ACHN; experiment: AUC of dose-response viability curve, drug alone (arbitrary (AUC of normalised viability)); higher = less growth inhibition
Method: as §1

[18] = tested on: CAKI-1; experiment: as above
Method: as §1

[19] = tested on: UO-31; experiment: as above
Method: as §1

[20] = tested on: SN12C; experiment: as above
Method: as §1

[21] = tested on: 769-P; experiment: as above
Method: as §1

[22] = tested on: 786-O; experiment: as above
Method: as §1

[23] = tested on: TK-10; experiment: as above
Method: as §1

[24] = tested on: A498; experiment: as above
Method: as §1

Structure (SMILES) | GI50, drug alone [1] | GI50, drug alone [2] | GI50, drug alone [3] | GI50, drug alone [4] | GI50, drug alone [5] | GI50, drug alone [6] | GI50, drug alone [7] | GI50, drug alone [8] | minimum viability across doses [9] | minimum viability across doses [10] | minimum viability across doses [11] | minimum viability across doses [12] | minimum viability across doses [13] | minimum viability across doses [14] | minimum viability across doses [15] | minimum viability across doses [16] | AUC of dose-response viability curve [17] | AUC of dose-response viability curve [18] | AUC of dose-response viability curve [19] | AUC of dose-response viability curve [20] | AUC of dose-response viability curve [21] | AUC of dose-response viability curve [22] | AUC of dose-response viability curve [23] | AUC of dose-response viability curve [24]
COc1cc2ncnc(Nc3ccc(F)c(Cl)c3)c2cc1NC(=O)/C=C/CN1CCCCC1 | 50.8 nM | 1300 nM | 2.82 µM | 1360 nM | 0.21 µM | 24.3 nM | 0.146 µM | 3 µM | 0.00434 | 0.00809 | 0.0173 | 0.00743 | 0.0108 | 0.0062 | 0.0112 | 0.0166 | 1.4 | 2.17 | 2.7 | 2.09 | 1.85 | 1.39 | 1.7 | 3.2
C[C@@H](Oc1cc(-c2cnn(C3CCNCC3)c2)cnc1N)c1c(Cl)ccc(F)c1Cl | 4030 nM | 4010 nM | 4.17 µM | 2430 nM | 6.06 µM | 1840 nM | 5.34 µM | 9.41 µM | 0.225 | 0.0408 | 0.169 | 0.154 | 0.117 | 0.0211 | 0.239 | 0.346 | 3.07 | 3.06 | 3.1 | 2.68 | 3.14 | 2.67 | 3.23 | 3.48
COCC(=O)NC/C=C/c1ccc2ncnc(Nc3ccc(Oc4ccc(C)nc4)c(C)c3)c2c1 | > 10000 nM | > 10000 nM | > 10 µM | > 10000 nM | > 10 µM | > 10000 nM | > 10 µM | > 10 µM | 0.61 | 0.937 | 1.11 | 0.739 | 0.878 | 0.717 | 0.661 | 1.07 | 3.39 | 3.51 | 5.09 | 3.1 | 3.37 | 2.92 | 3.07 | 4.6
CCc1cc2c(cc1N1CCC(N3CCOCC3)CC1)C(C)(C)c1[nH]c3cc(C#N)ccc3c1C2=O | 5470 nM | 5020 nM | > 10 µM | > 10000 nM | > 10 µM | > 10000 nM | > 10 µM | > 10 µM | 0.366 | 0.428 | 1.02 | 0.801 | 0.922 | 0.655 | 0.612 | 1.06 | 3 | 2.98 | 6.33 | 3.28 | 3.67 | 3 | 2.93 | 5.08
CN1CCN(c2cccc(Nc3nc4c(-c5ccc(S(C)(=O)=O)cc5)cccn4n3)c2)CC1 | 1400 nM | 2310 nM | > 10 µM | > 10000 nM | > 10 µM | > 10000 nM | 3.53 µM | > 10 µM | 0.293 | 0.244 | 0.707 | 0.599 | 0.782 | 0.585 | 0.298 | 1.13 | 2.65 | 2.85 | 4.6 | 3.13 | 3.49 | 3.18 | 2.82 | 4.91
CO[C@@H](C(=O)N1Cc2[nH]nc(NC(=O)c3ccc(N4CCN(C)CC4)cc3)c2C1)c1ccccc1 | 1300 nM and 603 nM | 1110 nM and 960 nM | > 10 µM | 1190 nM and 929 nM | 8.85 µM and 8.39 µM | 227 nM and 213 nM | 2.64 µM and 1.85 µM | 8.18 µM and > 10 µM | 0.176 and 0.142 | 0.139 and 0.0977 | 0.7 and 0.698 | 0.174 and 0.144 | 0.463 and 0.473 | 0.00938 and 0.00426 | 0.174 and 0.139 | 0.516 and 0.594 | 2.19 and 2.18 | 2.45 and 2.51 | 3.34 and 3.7 | 2.38 and 2.35 | 3.09 and 3.4 | 1.52 and 1.67 | 2.6 and 2.61 | 3.26 and 3.77
CN(C)c1ccc(-c2nc3c(N4CCN(CC(=O)Nc5nccs5)CC4)c(Cl)cnc3[nH]2)cc1 | 1860 nM | 1260 nM | 2.01 µM | 5400 nM | 5.51 µM | 2760 nM | > 10 µM | > 10 µM | 0.18 | 0.115 | 0.0202 | 0.434 | 0.39 | 0.259 | 0.574 | 0.622 | 2.58 | 2.57 | 3.93 | 2.76 | 2.85 | 2.24 | 2.91 | 4.21
Cc1cc(CN2CCN(c3c(Br)cnc4[nH]c(-c5ccc(N6CCN(C)CC6)cc5)nc34)CC2)no1 | 732 nM | 885 nM | 8.57 µM | 2420 nM | 0.858 µM | 451 nM | 2.84 µM | 3.35 µM | 0.00704 | 0.00778 | 0.0211 | 0.0135 | 0.0185 | 0.00301 | 0.177 | 0.0157 | 2.36 | 2.6 | 4.13 | 2.74 | 2.44 | 2.01 | 2.61 | 3.57
CC(C)(C)c1nc(-c2cccc(NS(=O)(=O)c3c(F)cccc3F)c2F)c(-c2ccnc(N)n2)s1 | 381 nM | 567 nM | > 10 µM | > 10000 nM | > 10 µM | 3870 nM | 5.14 µM | > 10 µM | 0.115 | 0.163 | 0.75 | 0.942 | 0.842 | 0.463 | 0.447 | 0.91 | 2.19 | 2.67 | 4.68 | 3.69 | 3.52 | 2.47 | 2.54 | 4.27
Cc1cc2c(F)c(Oc3ncnn4cc(OC[C@@H](C)OC(=O)[C@H](C)N)c(C)c34)ccc2[nH]1 | 8450 nM | > 10000 nM | 9.72 µM | > 10000 nM | > 10 µM | 8620 nM | > 10 µM | > 10 µM | 0.417 | 0.605 | 0.458 | 0.75 | 0.818 | 0.358 | 0.637 | 0.898 | 2.61 | 3.29 | 3.77 | 3.35 | 3.33 | 2.99 | 3.26 | 3.68
O=C(NOCC1CC1)c1ccc(F)c(F)c1Nc1ccc(I)cc1Cl | 3510 nM | 4190 nM | > 10 µM | > 10000 nM | 5.01 µM | 4380 nM | 4.99 µM | > 10 µM | 0.263 | 0.23 | 0.779 | 0.467 | 0.233 | 0.41 | 0.362 | 0.593 | 2.78 | 3.04 | 4.14 | 2.86 | 2.96 | 2.98 | 2.68 | 3.44
Nc1nc(NCCNc2ncc(-n3ccnc3)c(-c3ccc(Cl)cc3Cl)n2)ccc1[N+](=O)[O-] | 3930 nM | 7770 nM | 1.65 µM | 9820 nM | 2.72 µM | 1240 nM | 1.92 µM | > 10 µM | 0.0311 | 0.211 | 0.0119 | 0.455 | 0.0343 | 0.013 | 0.0728 | 0.701 | 3.06 | 3.69 | 3.59 | 3.5 | 2.89 | 2.36 | 2.43 | 4.54
C#Cc1cccc(Nc2ncnc3cc(OCCOC)c(OCCO)cc23)c1 | 472 nM | 2840 nM | > 10 µM | > 10000 nM | 3.48 µM | > 10000 nM | 2.61 µM | > 10 µM | 0.097 | 0.159 | 1.05 | 0.645 | 0.396 | 0.531 | 0.402 | 0.994 | 2.13 | 2.93 | 4.22 | 3.24 | 2.71 | 2.98 | 2.39 | 4.38
COCCOc1ccc2c(c1)ncn2-c1ccc2cccc(N3CCC(N)CC3)c2n1 | 2480 nM | 2110 nM | 2.91 µM | 2800 nM | 6.04 µM | 631 nM | 2.12 µM | 3.3 µM | 0.0176 | 0.292 | 0.00652 | 0.0384 | 0.333 | 0.00547 | 0.198 | 0.0414 | 2.7 | 2.66 | 3.38 | 2.92 | 3.12 | 1.81 | 2.43 | 3.27
CC1(COc2ccc3c(c2)ncn3-c2ccc3cccc(N4CCC(N)CC4)c3n2)COC1 | 2730 nM | 3200 nM | 1.37 µM | 2190 nM | 5.05 µM | 538 nM | 4.88 µM | 3.47 µM | 0.0169 | 0.319 | 0.0124 | 0.0442 | 0.283 | 0.00547 | 0.16 | 0.0171 | 2.98 | 2.69 | 2.67 | 2.58 | 2.25 | 1.83 | 2.88 | 3.5
Cc1nc(Nc2ncc(C(=O)Nc3c(C)cccc3Cl)s2)cc(N2CCN(CCO)CC2)n1 | 78.5 nM | 78.8 nM | 0.135 µM | 2300 nM | 0.149 µM | 179 nM | 0.0257 µM | > 10 µM | 0.0527 | 0.0431 | 0.0768 | 0.377 | 0.0457 | 0.0837 | 0.0612 | 0.631 | 1.52 | 1.45 | 1.93 | 2.35 | 1.7 | 1.9 | 1.11 | 3.35
NC1(Cc2ccc(Cl)cc2)CCN(c2ncnc3[nH]ccc23)CC1 | 5910 nM | > 10000 nM | 3.8 µM | 7350 nM | 8.76 µM | 631 nM | 4.56 µM | > 10 µM | 0.287 | 0.348 | 0.00579 | 0.431 | 0.432 | 0.0631 | 0.284 | 0.905 | 3.38 | 3.21 | 4.18 | 3.08 | 3.31 | 2.17 | 3.01 | 4.01
